Series [1] has as its system Trastuzumab. Briefly: Induction of polyreactivity of Trastuzumab by heme derivatives. The series is classed as binding. The note with it: for induction of polyreactivity of Trastuzumab: exposure of Trastuzumab to the compound; for rank of potential to induce polyreactivity: reactivity towards bacterial antigens.
Series [2] deals with Trastuzumab. Briefly: Size-exclusion chromatography, induction of Trastuzumab oligomers by heme or heme analogues. The class given is physicochemical. A general note: SEC sorts molecules by how far they enter the pores of the column.
Series [3] has as its target Trastuzumab. Briefly: SPR binding kinetics and thermodynamics of heme to immobilized Trastuzumab. As to the method: Trastuzumab was immobilized on a CMS sensor chip (Biacore) by using amine-coupling kit provided by the manufacturer. The Ab was diluted in 5 mM maleic acid (pH 4) to a final concentration of 10 μg/ml. The achieved immobilization level was 6300 resonance unit (RU). All measurements were performed using HBS-EP (0.01M HEPES, pH 7.4 containing 0.15 M NaCl, 3 mM EDTA and 0.05% Tween 20). Initially, a stock solution of heme (hemin, Frontiers Scientific, Logan, Utah) at 1 mM was prepared in 0.05 N NaOH. Heme was further diluted to 10 μM in the running buffer and 8 two-fold dilutions (10-0.078 μM) were injected at flow rate of 30 μl/min. The association and dissociation phases of the interaction were monitored for 5 min and 10 min, respectively. […]
Heme was diluted at 10 μM in HBS-EP and injected at flow rate of 30 ul/min. The association and dissociation phases of the interaction were monitored for 5 min and 10 min, respectively. […]
The kinetic rate constants obtained at different temperatures were used to build Arrhenius plots. The values of slopes of the Arrhenius plots were calculated by using a linear regression analysis of the experimental kinetic data and substituted in Equations 1-4,
Where the “slope”=∂1n(ka/d/∂(1/T), and where Ea is the activation energy. The enthalpy, entropy, and Gibbs free energy changes characterizing the association phase were calculated using Equations 2-4, […]
A general note: In SPR one partner is held on a chip, and binding of the other changes the refractive index at the surface.

For series [4], the system named is more than 9,000 human proteins. The series can be described thus: Protein microarray (ProtoArray) reactivity. The series is classed as binding.
The subject of series [5] is Trastuzumab. The series can be described thus: Absorbance spectroscopy of heme with Trastuzumab. The class given is binding. As to the method: Absorbance spectra were measured by using UNICAM Helios b, UV-vis spectrophotometer. […] After addition of each heme aliquot and incubation for 2 min in dark, the absorbance spectra in the wavelength range 350-700 nm were recorded. The spectra were scanned at rate of 300 nm/min. All measurements were performed at room temperature, in quartz cuvettes with optical path of 1 cm.

Series [6] has as its system Trastuzumab. The series can be described thus: Quenching of intrinsic tryptophan fluorescence of Trastuzumab by heme. The class given is binding. As to the method: The Ab was diluted to 0.1 μM in PBS and titrated with increasing concentrations (0, 0.01, 0.025, 0.05, 0.1, 0.2, 0.4, 0.8, 1.6 and 3.2 μM) of heme, added as aliquots from a stock solution. A wavelength of 295 nm was used to selectively excite tryptophan residues. Excitation and emission slits were both adjusted to 10 nm. […] Quartz cuvette with 1 cm optical path was used in the experiment. All measurements were performed at room temperature.

In series [7] the test system is Trastuzumab. The series can be described thus: Circular dichroism of Trastuzumab exposed to heme. The note with it: Ab 1 μM, heme 10 μM. The protocol: The CD spectra measurements were performed with JASCO-J710 Spectrometer. Data pitch and slit were both set to 1 nm. The data were recorded at scan speed on 10 nm/min in the range of 260-185 nm. […] The Ab was exposed or not to 10 μM concentration of heme. All spectra were acquired at 20° C. in quartz cuvettes with 1 mm optical path.
(Circular dichroism is the unequal absorption of left and right circularly polarised light.)

The test system of another series is SKBR3 cells. Briefly: Direct and complement-mediated cytotoxicity (WST-1), SKBR3. The series is classed as cell-based, human. The note with it: identical concentrations as introduced by heme-bound Trastuzumab. As to the method: (§1) Cells were treated on 96-wells plates with flat bottom and low evaporation lid (Coster, USA). MDA-MB-231 or SKBR3 breast cancer cells were plated and left for 2 hours to adhere. […] The Ab was diluted to a final concentration of 3.7 μg/ml. As a source of complement, baby rabbit complement (AbD Serotec) was added to obtain a dilution of ×5 (MDA-MB-231 cells) or ×8 (SKBR3 cells). As control, heat inactivated fetal calf serum was added at the same ratios. To evaluate the amount of alive cells, WST-1 dye (Roche) was added after 5 days of incubation at 37° C. The absorbance at 450 nm and 690 nm was read after 2 hours incubation at 37° C.

In another series the test system is MDA-MB-231 cells. The series can be described thus: Direct and complement-mediated cytotoxicity (WST-1), MDA-MB-231. The series is classed as cell-based, human. The note with it: identical concentrations as introduced by heme-bound Trastuzumab. As to the method:
as §1

A further series relates to immobilized Trastuzumab. The series can be described thus: ELISA induction of antibody homophilicity by heme. The series is classed as binding. The protocol:
The plates were blocked with PBS 0.25% containing Tween 20 for 1 hour. […] IgG was then diluted two times in PBS-T before incubation on plates for 2 h at room temperature. Following extensive washing, the plates were incubated for 30 min with streptavidin-HRP (Southern Biotech).
IgG was then diluted ten times in PBS-T before incubation on the plates for 2 h at room temperature.

As for `CCC1=C(C)C2=NC1=Cc1c(C)c(CC)c3[n]1[Fe][n]1c(c(C)c(CCC(=O)O)c1=CC1=NC(=C3)C(C)=C1CCC(=O)O)=C2` [Fe (III) mesoporphyrin IX], the “induction of polyreactivity of Trastuzumab” value in the series with Trastuzumab [1] is listed as “appearance of novel antigen-binding specificities”. In the series with Trastuzumab [2], the “induction of oligomerization / self-association of Trastuzumab” value is on record as “able to induce oligomerization of Trastuzumab”.
In general, Kd refers to the concentration at which binding is half-saturated. Low values mean a tighter complex, high ones a looser complex. As to iron protoporphyrin IX [heme], the Kd on Trastuzumab [3] (SPR, heme to immobilized Trastuzumab) was 100 nM. The “portion of the Ab binding heme” value with Trastuzumab [3] (immobilized Fab fragments, Fc fragments, heme 10 μM) is “preferential binding to the immobilized Fab portion”. The “binding to human proteins” value in [4] is recorded as “able to bind to numerous human proteins, but to a lower extent”. Further, the “rank of potential to induce polyreactivity” value with Trastuzumab [1] is “lowest potential”. Further, the “change in absorbance spectrum” value with Trastuzumab [5] is “increased absorbance intensity of heme in high and low energy regions of the spectrum”. Moreover, in the series with Trastuzumab [6], the “quenching of tryptophan fluorescence” value is “concentration-dependent decrease in the fluorescence signal”. For the same compound, the “change of circular dichroism spectra” value in the series on Trastuzumab [7] is “Considerable changes of the circular dichroism ellipticity curves”. The “cell proliferation, heme alone” value with SKBR3 cells and with MDA-MB-231 cells was “no negative impact on the cell proliferation” in each case.
As for `CC1=Cc2cc3[n-]c(cc4nc(cc5[n-]c(cc1n2)c(C)c5CCC(=O)O)C(CCC(=O)O)=C4C)cc3C.[Fe]` [Fe (III) deuteroporphyrin IX], in the series on Trastuzumab [1], the “induction of polyreactivity of Trastuzumab” value is “appearance of novel antigen-binding specificities” and the “rank of potential to induce polyreactivity” value was “most potent inducer of polyreactivity”.
On to `CC1=C(CCC(=O)O)c2cc3[n-]c(cc4nc(cc5[n-]c(cc1n2)c(CCC(=O)O)c5C)C(CCC(=O)O)=C4C)c(CCC(=O)O)c3C.[Fe+3]` [Fe (III) coproporphyrin I], for which the “induction of polyreactivity of Trastuzumab” value with Trastuzumab [1] is “appearance of novel antigen-binding specificities”.
Take `C=CC1=C(C)c2cc3[n-]c(cc4[n-]c(cc5nc(cc1n2)C(C)=C5C=C)c(C)c4CCC(=O)O)c(CCC(=O)O)c3C.[Zn+2]` [ZnPP, Zn (II) protoporphyrin IX, reference compound]: the “induction of oligomerization / self-association of Trastuzumab” value in the series with Trastuzumab [2] is “failed to induced antibody homophilicity or oligomerization”. The “induction of antibody homophilicity by heme analog” value in the series on immobilized Trastuzumab is on record as “failed to induced antibody homophilicity or oligomerization”.

The values above are taken from patent US20220047701A1, “COMBINATION OF HER2/NEU ANTIBODY WITH HEME FOR TREATING CANCER” (INSERM (Institut National de la Santé et de la Recherche …, priority 2018, published 2022).
